Like-named read-outs stand apart in the source and are kept apart here.
Experiments:
acetaldehyde = test: MTCG in urine of rats treated with ethanol, disulfiram and CG or CbG; conditions: for oral bioavailability (in words): inferred from urinary MTCG excretion
Protocol: In the first study, rats were administered disulfiram, an ALDH inhibitor and alcohol deterrent drug used to inhibit the metabolism of ethanol at the acetaldehyde stage, thus producing an adverse reaction that discourages further alcohol drinking (reviewed in Wikipedia, 2017). Treatment of rats with disulfiram causes a buildup of acetaldehyde in blood (Nagasawa et al, 1978). The rats were then administered CbG, orally, to determine whether CbG, following its in vivo conversion to CG, can sequester the acetaldehyde produced in the disulfiram-treated rats to a product that is excreted into the urine. Note that CbG in vivo may be reduced 2 CG. The product expected from this sequestration reaction is MTCG (vide supra). The MTCG in rat urine, collected over 24 hours following the ethanol dose, was quantitatively analyzed by LC/MS.

isoamyl aldehyde = conditions: for BTCG excreted in urine: LC/MS
Text: In the second study, isoamyl alcohol replaced ethanol, and cyanamide, another clinically-used ALDH inhibitor (Tottmar et al., 1977), replaced disulfiram to block the further metabolism of isoamyl aldehyde derived from isoamyl alcohol (FIG. 3). Isoamyl alcohol is the most abundant small, branched-chain alcohol congener present in bourbon (Damrau and Liddy, 1960). […] The excreted product in urine here would be 2-isoobutylthiazolidine-4-carbonylglycine, viz., BTCG (FIG. 1). The urines were analyzed for BTCG by LC/MS as above.

[1] = Urinary excretion and metabolic fate of MTCA in rats; type: in vivo
Text: We examined cysteine (the natural “L’ form), a semi-essential sulfhydryl amino acid, as a sequestering agent for acetaldehyde (Nagasawa et al., 1975). Indeed, cysteine readily condensed with acetaldehyde in aqueous solution to form a cyclic product, 2-methylthiazolidine-4 carboxylic acid (MTCA). […] We, therefore, prepared and administered radio-labeled MTCA (^14C at the 2-position) to a rat to follow its metabolic course (Nagasawa et al., 1984).

[2] = Stability of MTCG in 0.1 N HCl; type: physicochemical
Text: Although identified in urine, the long-term stability of MTCG in urine is still a question. MTCG is found to be stable in 0.1 N HCl, so we plan to collect the rat urine in acidified containers on ice. Presence of MTCG will be determined using a HPLC/MS method to obtain quantitative data of MTCG in rat urine.

[3] = rat biological fluids; cited from earlier work

**Q.** Which “urinary MTCG excretion, CG group (Group A) compared with disulfiram and ethanol only (Group C)” value (acetaldehyde; rats, disulfiram and ethanol, 24 hour urine) does the source give for `N[C@@H](CS)C(=O)NCC(=O)O` [CG, cysteinylglycine] here?
**A.** not statistically significant

**Q.** And the “oral bioavailability (in words)” value (acetaldehyde; rats)?
**A.** poor oral bioavailability

**Q.** For `NC(CSSCC(N)C(=O)NCC(=O)O)C(=O)NCC(=O)O` (centres unmarked) [CbG, cystinyl-bis-glycine], which “urinary excretion of MTCG relative to CG administration” value (acetaldehyde; rats given disulfiram and ethanol, oral CbG (Group B) vs CG (Group A), urine collected over 24 hours, LC/MS) is on record?
**A.** 4.25 times greater

**Q.** What about the “oral bioavailability (in words)” value (acetaldehyde; rats) of the same compound?
**A.** more orally bioavailable than CG

**Q.** What about the “BTCG excreted in urine” value (isoamyl aldehyde; Group A: cyanamide, isoamyl alcohol and CbG) of the same compound?
**A.** excreted BTCG in the urine, albeit minimally

**Q.** What about the condition of animals (isoamyl aldehyde; Group A: rats receiving cyanamide, isoamyl alcohol and CbG, group without CbG was comatose (3 of 7) with one death) of the same compound?
**A.** normal although hypoactive

**Q.** What about the “BTCG excreted in urine” value (isoamyl aldehyde; Group C: isoamyl alcohol and CbG, no cyanamide) of the same compound?
**A.** no BTCG could be detected in urine

**Q.** And the condition of animals (isoamyl aldehyde; Group C: rats receiving isoamyl alcohol and CbG, no cyanamide)?
**A.** normal but more active

**Q.** What about the “urinary excretion of BTCG compared to MTCG of the first study” value (isoamyl aldehyde; cyanamide, CbG, isoamyl alcohol vs disulfiram, CbG, ethanol (nanograms of BTCG vs. micrograms of MTCG)) of the same compound?
**A.** more than 3 orders of magnitude lower

**Q.** Which “MTCA in urine after ethanol and L-cysteine” value ([1]; rats administered ethanol and L-cysteine) does the source give for `N[C@@H](CS)C(=O)O` [L-cysteine] here?
**A.** could not find MTCA in the urine

**Q.** With `CC1NC(C(=O)O)CS1` (centres unmarked) [MTCA, 2-methylthiazolidine-4 carboxylic acid] as the compound, how does the “metabolic fate of radiolabel” value ([1]; rat, in vivo) read?
**A.** most of the radiolabel appeared as expired ^14CO2

**Q.** What about the “MTCA in urine after administration of MTCA” value ([1]; rats, MTCA 400 mg/kg) of the same compound?
**A.** no MTCA in the urine

**Q.** For `CC1NC(C(=O)NCC(=O)O)CS1` (centres unmarked) [MTCG, 2-methylthiazolidine-4-carbonylglycine], which “stability in 0.1 N HCl” value [2] is on record?
**A.** stable

**Q.** What about the “stability in biological fluids of rats, including urine” value [3] of the same compound?
**A.** stable

Reference: patent publication US11717554B2, “Method for preventing or treating hangover symptom(s) associated with consumption of alcoholic beverage(s)” (MAX R&D LLC, priority 2019, dated 2023)
